# From ChEMBL document CHEMBL2163302, “Allyl m-trifluoromethyldiazirine mephobarbital: an unusually potent enantioselective and photoreactive barbiturate general anesthetic” (J Med Chem, 2012)
# Experiments:
# Xenopus laevis = experiment: Anesthetic activity in Xenopus laevis tadpoles assessed as loss of righting reflexes; type: functional, organism-based; settings: Tadpole
# [1] = molecular target: GABA-A receptor; alpha-1/beta-2/gamma-2 (Homo sapiens) (UniProt P14867+P47870+P18507); settings: Oocyte, 80 uM
# [2] = Aqueous solubility in 0.01 M Tris/HCl buffer at pH 7.4 by HPLC; type: physicochemical
# [3] = molecular target: T1, Gamma-aminobutyric acid receptor subunit alpha-1 (Homo sapiens) (UniProt P14867); settings: HEK293S, 200 uM
# T1 sequence (whole entry): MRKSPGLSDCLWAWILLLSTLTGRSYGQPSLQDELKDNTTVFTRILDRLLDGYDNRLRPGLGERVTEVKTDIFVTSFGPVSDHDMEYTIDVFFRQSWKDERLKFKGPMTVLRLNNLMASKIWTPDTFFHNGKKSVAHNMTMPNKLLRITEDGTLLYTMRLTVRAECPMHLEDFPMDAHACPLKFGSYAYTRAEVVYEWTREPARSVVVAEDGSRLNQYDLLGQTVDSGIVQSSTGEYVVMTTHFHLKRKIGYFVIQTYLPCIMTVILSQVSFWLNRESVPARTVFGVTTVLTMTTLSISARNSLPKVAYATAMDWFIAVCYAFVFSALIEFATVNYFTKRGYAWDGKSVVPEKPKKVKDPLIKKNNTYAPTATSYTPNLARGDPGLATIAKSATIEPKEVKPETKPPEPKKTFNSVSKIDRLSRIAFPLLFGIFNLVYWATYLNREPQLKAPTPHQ
# [4] = molecular target: T2, Gamma-aminobutyric acid receptor subunit beta-3 (Homo sapiens) (UniProt P28472); settings: HEK293S, 200 uM
# T2 sequence (whole entry): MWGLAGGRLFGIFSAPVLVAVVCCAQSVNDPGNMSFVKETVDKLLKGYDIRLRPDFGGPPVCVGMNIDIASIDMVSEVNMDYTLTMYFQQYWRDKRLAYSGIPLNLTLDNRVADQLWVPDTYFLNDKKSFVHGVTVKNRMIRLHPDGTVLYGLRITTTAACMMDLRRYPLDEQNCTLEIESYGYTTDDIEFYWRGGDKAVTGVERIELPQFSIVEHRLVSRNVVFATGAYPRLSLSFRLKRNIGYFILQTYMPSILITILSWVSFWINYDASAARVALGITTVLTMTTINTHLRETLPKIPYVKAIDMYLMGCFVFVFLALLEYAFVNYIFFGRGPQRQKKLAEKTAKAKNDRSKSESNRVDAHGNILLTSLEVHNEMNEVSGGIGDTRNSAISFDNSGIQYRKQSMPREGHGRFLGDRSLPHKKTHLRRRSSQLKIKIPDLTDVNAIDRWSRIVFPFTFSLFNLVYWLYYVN
# [5] = Stability in 0.01 M Tris/HCl buffer at pH 7.4 at 4 degC days by HPLC; type: physicochemical
# [6] = molecular target: T3, Gamma-aminobutyric acid receptor subunit beta-3 (Homo sapiens, UniProt P28472); experiment: biochemical
# T3 sequence (P28472 whole entry): T2 sequence (whole entry)
compound,measurement,setting,value
C=CC[C@]1(c2cccc(C3(C(F)(F)F)N=N3)c2)C(=O)NC(=O)N(C)C1=O,EC50,Xenopus laevis,38 µM
same,inhibition,[1],40%
CCC1(c2ccccc2)C(=O)NC(=O)N(C)C1=O (stereo not given) [MEPHOBARBITAL],solubility,"[2]; 0.01 M Tris/HCl buffer, read-out: solubility",600 µM
C=CC[C@@]1(c2cccc(C3(C(F)(F)F)N=N3)c2)C(=O)NC(=O)N(C)C1=O,EC50,Xenopus laevis,3.7 µM
same,inhibition,[3],> 90%
same,inhibition,[4],> 90%
C=CCC1(c2cccc(C3(C(F)(F)F)N=N3)c2)C(=O)NC(=O)N(C)C1=O (racemic),Stability,[5],2.5 days
same,solubility,[2]; buffer,80 µM
CCCC(C)C1(CC)C(=O)NC(=O)NC1=O (stereo not given) [PENTOBARBITAL],EC50,Xenopus laevis,65 µM
same,IC50,[6],88 µM
